Reference: patent publication US6770287B1, “Biocidal cellulosic material” (The Regents of the University of California, priority 2000, dated 2004)
Marks after values point to notes of the source that are not given here.

Tested on: E. coli enhanced green fluorescent protein (B)GFP 0157:H7
Assay: Biocidal wood blocks: CFU recovered after contact
Assay type: cell-based
Details: for average percent reduction of bacterium as compared to the untreated control blocks: estimated from the data of all trials
Method: The blocks were prepared by dividing large cutting boards into squares with sides measuring 5 cm using a table saw. The blocks were of the face-grain configuration. The edges were then smoothened with 120 or 180 grit sandpaper as needed to achieve uniformity among all blocks. The blocks were visually inspected to be the correct size and any blocks that appeared to deviate from the standard were remeasured and discarded if they were an incorrect size.
The blocks (Bemis Manufacturing Company, 300 Mill Street, PO Box 901, Sheboygan Falls, Wis., 53085-0901) were labeled based on concentration and ascending numbers. The blocks were immersed in solutions containing the following two formulations, respectively: […]
And the blocks were taken out from the solutions after they are completely soaked by the chemicals, and then dried at 80° C. in an oven for a prolonged time till they are completely dry. The curing of the blocks was conducted at 150° C. for over 30 minutes.
A bleach process is necessary to activate the biocide. A bleach solution containing about 0.05% sodium hypochlorite was prepared from a commercial Clorox liquid (containing 5.25% sodium hypochlorite). The volume of the solution was based on a liquid to wood mass ratio of 50:1. The blocks were scrubbed lightly on a sponge saturated with the chlorine solution from the bath for five strokes. The blocks were placed face down in the diluted bleach solution for 15 minutes. After 15 minutes the blocks were transferred directly to a cooling rack (to allow even drying) in a laminar flow hood that had been previously sterilized with a 70% ethanol solution and left with the exhaust turned on. The blocks were then left in the laminar flow hood until completely dry (at least five hours).
1. A sample of E. coli enhanced green fluorescent protein (B)GFP 0157:H7 was inoculated into a test tube of LB broth with 0.01% ampicillin and 0.01% novobiocin antibiotics (to be referred to as LBAN). The test tube was labeled and then incubated at 37° C. for 24 hours. The sample was then serial diluted with LBAN broth. 0.1 mL of the broth was then inoculated onto LB or Brain Heart Infusion (BHI) agar, also with ampicillin and 0.01% novobiocin antibiotics. The concentrations of 10^−7, 10^−6, and 10^−5 were spread plated. These plates were allowed to incubate for 24 hours at 37° C. The CFU/mL was determined by averaging the colonies from the plates of the most easily countable concentration.
7. The timer was started and the inoculum was spread on the blocks at the rate of one per 30 seconds.
8. 0.2 mL of the inoculum was spread onto the blocks using the pipet tip and pipetter. A new pipet tip was used for each block.
9. After the correct (variable) contact time, the blocks were carefully pressed on the agar surface for 20 seconds and then the plates were inverted and placed in an incubator at 37° C. for 24 hours.
10. The colonies were counted for each plate and thus the kills were determined for each concentration.

[1] = trial A, 5% biocide, inoculum 2.5 × 10^5, contact time 5 minutes
[2] = trial A, 10% biocide, inoculum 2.5 × 10^5, contact time 5 minutes
[3] = trial B, 5% biocide, inoculum 1.8 × 10^5, contact time 5 minutes
[4] = trial B, 10% biocide, inoculum 1.8 × 10^5, contact time 5 minutes
[5] = trial C, 5% biocide, inoculum 1.4 × 10^5, contact time 5 minutes
[6] = trial C, 10% biocide, inoculum 1.4 × 10^5, contact time 5 minutes
[7] = trial D, 5% biocide, inoculum 1.4 × 10^5, contact time 5 minutes
[8] = trial D, 10% biocide, inoculum 1.4 × 10^5, contact time 5 minutes
[9] = trial E, 5% biocide, inoculum 1.0 × 10^4, contact time 5 minutes
[10] = trial E, 10% biocide, inoculum 1.0 × 10^4, contact time 5 minutes
[11] = trial F, 5% biocide, inoculum 1.0 × 10^4, contact time 5 minutes
[12] = trial F, 10% biocide, inoculum 1.0 × 10^4, contact time 5 minutes
[13] = trial G, 5% biocide, inoculum 3.3 × 10^4, contact time 2.5 minutes
[14] = trial G, 10% biocide, inoculum 3.3 × 10^4, contact time 2.5 minutes
[15] = trial H, 5% biocide, inoculum 3.3 × 10^4, contact time 5 minutes
[16] = trial H, 10% biocide, inoculum 3.3 × 10^4, contact time 5 minutes
[17] = trial I, 5% biocide, inoculum 1.0 × 10^4, contact time 5 minutes
[18] = trial I, 10% biocide, inoculum 1.0 × 10^4, contact time 5 minutes
[19] = trial J, 1st line, 5% biocide, inoculum 1.37 × 10^5, contact time 5 minutes
[20] = trial J, 1st line, 10% biocide, inoculum 1.37 × 10^5, contact time 5 minutes
[21] = trial J, 2nd line, 5% biocide, inoculum 1.37 × 10^5, contact time 5 minutes
[22] = trial J, 2nd line, 10% biocide, inoculum 1.37 × 10^5, contact time 5 minutes
[23] = trial K, New Blocks, 5% biocide, inoculum 1.2 × 10^4, contact time 5 minutes
[24] = trial K, New Blocks, 10% biocide, inoculum 1.2 × 10^4, contact time 5 minutes
[25] = trial K, Old Blocks, 5% biocide, inoculum 1.2 × 10^4, contact time 5 minutes
[26] = trial K, Old Blocks, 10% biocide, inoculum 1.2 × 10^4, contact time 5 minutes
[27] = trial L, New Blocks, 5% biocide, inoculum 8.0 × 10^1, contact time 5 minutes
[28] = trial L, New Blocks, 10% biocide, inoculum 8.0 × 10^1, contact time 5 minutes
[29] = trial L, Old Blocks, 5% biocide, inoculum 8.0 × 10^1, contact time 5 minutes
[30] = trial L, Old Blocks, 10% biocide, inoculum 8.0 × 10^1, contact time 5 minutes
[31] = trial M, New Blocks, 5% biocide, inoculum 6.45 × 10^3, contact time 10 minutes
[32] = trial M, New Blocks, 10% biocide, inoculum 6.45 × 10^3, contact time 10 minutes
[33] = trial M, Old Blocks, 5% biocide, inoculum 6.45 × 10^3, contact time 10 minutes
[34] = trial M, Old Blocks, 10% biocide, inoculum 6.45 × 10^3, contact time 10 minutes
[35] = trial N, New Blocks, 5% biocide, inoculum 6.6 × 10^4 CFU/mL, contact time 10 minutes
[36] = trial N, New Blocks, 10% biocide, inoculum 6.6 × 10^4 CFU/mL, contact time 10 minutes
[37] = trial N, Old Blocks, 5% biocide, inoculum 6.6 × 10^4 CFU/mL, contact time 10 minutes
[38] = trial N, Old Blocks, 10% biocide, inoculum 6.6 × 10^4 CFU/mL, contact time 10 minutes

CC1(C)C(=O)N(CO)C(=O)N1CO [Anti-2, 1,3-dimethylol-5,5-dimethylhydantoin]
average percent reduction of bacterium as compared to the untreated control blocks (5% blocks): about 86% | average percent reduction of bacterium as compared to the untreated control blocks (10% concentration blocks): 91% | means CFU/block ± standard deviation [1]: 125.3 ± 74.1 CFU/block | percentage reduction compared to control [1]: (85.0%)** | means CFU/block ± standard deviation [2]: 166.3 ± 132.2 CFU/block | percentage reduction compared to control [2]: (81.2%)** | means CFU/block ± standard deviation [3]: 11.6 ± 11.4 CFU/block | percentage reduction compared to control [3]: (97.6%) | means CFU/block ± standard deviation [4]: 26.3 ± 27.6 CFU/block | percentage reduction compared to control [4]: (94.5%) | means CFU/block ± standard deviation [5]: 65 ± 23.5 CFU/block | percentage reduction compared to control [5]: (85.4%) | means CFU/block ± standard deviation [6]: 48 ± 44.2 CFU/block | percentage reduction compared to control [6]: (89.2%) | means CFU/block ± standard deviation [7]: 19.8 ± 6.8 CFU/block | percentage reduction compared to control [7]: (95.0%) | means CFU/block ± standard deviation [8]: 26.8 ± 20.1 CFU/block | percentage reduction compared to control [8]: (93.2%) | means CFU/block ± standard deviation [9]: 2.5 ± 2.9 CFU/block | percentage reduction compared to control [9]: (97.7%) | means CFU/block ± standard deviation [10]: 2.3 ± 3.4 CFU/block | percentage reduction compared to control [10]: (97.8%) | means CFU/block ± standard deviation [11]: 25.9 ± 13.8 CFU/block | percentage reduction compared to control [11]: (94.3%) | means CFU/block ± standard deviation [12]: 31.7 ± 25.1 CFU/block | percentage reduction compared to control [12]: (93.1%) | means CFU/block ± standard deviation [13]: 20.8 ± 13.8 CFU/block | percentage reduction compared to control [13]: (89.8%) | means CFU/block ± standard deviation [14]: 10.3 ± 7.8 CFU/block | percentage reduction compared to control [14]: (95.0%) | means CFU/block ± standard deviation [15]: 14 ± 11.4 CFU/block | percentage reduction compared to control [15]: (80.1%) | means CFU/block ± standard deviation [16]: 7.4 ± 4.0 CFU/block | percentage reduction compared to control [16]: (89.9%) | means CFU/block ± standard deviation [17]: 12.3 ± 8.4 CFU/block | percentage reduction compared to control [17]: (73.8%) | means CFU/block ± standard deviation [18]: 6 ± 4.2 CFU/block | percentage reduction compared to control [18]: (87.2%) | means CFU/block ± standard deviation [19]: 63.7 ± 45.1 CFU/block | percentage reduction compared to control [19]: (80.6%) | means CFU/block ± standard deviation [20]: 37.9 ± 14.3 CFU/block | percentage reduction compared to control [20]: (88.5%) | means CFU/block ± standard deviation [21]: 45.8 ± 19.2 CFU/block | percentage reduction compared to control [21]: (85.8%) | means CFU/block ± standard deviation [22]: 14.6 ± 12.5 CFU/block | percentage reduction compared to control [22]: (95.5%) | means CFU/block ± standard deviation (trial J, 3rd line, 5% biocide, inoculum 1.37 × 10^5, contact time 5 minutes): 37.4 ± 15.8 CFU/block | means CFU/block ± standard deviation (trial J, 3rd line, 10% biocide, inoculum 1.37 × 10^5, contact time 5 minutes): 29.7 ± 25.1 CFU/block | means CFU/block ± standard deviation [23]: 7.7 ± 3.0 CFU/block | percentage reduction compared to control [23]: (90.7%) | means CFU/block ± standard deviation [24]: 4.9 ± 5.8 CFU/block | percentage reduction compared to control [24]: (94.1%) | means CFU/block ± standard deviation [25]: 12.0 ± 9.4 CFU/block | percentage reduction compared to control [25]: (77.3%) | means CFU/block ± standard deviation [26]: 9.3 ± 5.4 CFU/block | percentage reduction compared to control [26]: (82.4%) | means CFU/block ± standard deviation [27]: 0.17 ± 0.41 CFU/block | percentage reduction compared to control [27]: (98.1%) | means CFU/block ± standard deviation [28]: 0 ± 0 CFU/block | percentage reduction compared to control [28]: (100% | means CFU/block ± standard deviation [29]: 1.3 ± 1.3 CFU/block | percentage reduction compared to control [29]: (88.9%) | means CFU/block ± standard deviation [30]: 0.67 ± 0.71 CFU/block | percentage reduction compared to control [30]: (94.3%) | means CFU/block ± standard deviation [31]: 3.3 ± 2.4 CFU/block | percentage reduction compared to control [31]: (60.2% | means CFU/block ± standard deviation [32]: 1.6 ± 1.8 CFU/block | percentage reduction compared to control [32]: (80.7%) | means CFU/block ± standard deviation [33]: 3.3 ± 2.1 CFU/block | percentage reduction compared to control [33]: (82.4%) | means CFU/block ± standard deviation [34]: 3.3 ± 2.4 CFU/block | percentage reduction compared to control [34]: (82.4%) | means CFU/block ± standard deviation [35]: 17.8 ± 4.8 CFU/block | percentage reduction compared to control [35]: (88.2%) | means CFU/block ± standard deviation [36]: 6.2 ± 5.8 CFU/block | percentage reduction compared to control [36]: (95.9%) | means CFU/block ± standard deviation [37]: 20.7 ± 6.1 CFU/block | percentage reduction compared to control [37]: (86.5%) | means CFU/block ± standard deviation [38]: 15.9 ± 6.7 CFU/block | percentage reduction compared to control [38]: (89.6%) | more effective reductions of the bacterium on newer blocks than on old blocks (trials J-N, new versus old blocks): 5-10%
